Data set [1] can be described thus: Solubility in FaSSIF (Fasted State Simulated Intestinal Fluid). The format is physicochemical. Conditions: kinetic from dmso stock, FaSSIF pH 6.5, 25° C. Here is the method: Solubility in FaSSIF (Fasted State Simulated Intestinal Fluid)
Certain Compounds of the Disclosure were assessed for the apparent solubility in FaSSIF.
0.420 g of NaOH, 3.438 g of NaH2PO4 and 6.186 g of NaCl were dissolved into about 900 mL ultrapure water. The solution was adjusted to the pH of 6.5 with 1N NaOH or 1N HCl. The solution was then diluted with ultrapure water to 1000 mL at room temperature. The resulting solution is used as buffer solution.
2.240 g of FaSSIF Powder was added to about 500 mL of above-mentioned buffer solution. The solution was stirred until powder was completely dissolved. Then the solution was diluted with buffer A to 1000 mL at room temperature. This solution is FaSSIF to be used in the following experiment.
15 μL of stock solution (10 mM) of each sample was placed into their proper 96-well rack. 485 μL of FaSSIF was added into each vial of the cap-less solubility sample plate. One stir stick was added to each vial and the vial was sealed using a molded PTFE/Silicone plug. The solubility sample plate was transferred to the Eppendorf Thermomixer Comfort plate shaker and shaked at 25° C. at 1100 RPM for 2 hours. After completion of the 2 hours, the stir sticks using a big magnet were removed. The samples from the solubility sample plate were transferred into the filter plate. Using the vacuum manifold, all the samples are filtered. Aliquot of 5 μL was taken from filtrate followed by addition of 5 μL DMSO and 490 μL of a mixture of H2O and acetonitrile containing internal standard (1:1).
3 μM Standards solution (STD) was prepared from the 10 mM DMSO STD plate.as following: transferring 6 μL into the remaining empty plate, adding 194 μL of DMSO to that plate to have a STD concentration of 300 μM. From the 300 μM DMSO STD plate, 5 μL solution was transferred into the remaining empty plate. Addition of 5 μL PBS and 490 μL of a mixture of H2O and acetonitrile containing internal standard (1:1) to that plate furnished a final STD concentration of 3 μM STD solution.
The samples are analyzed and quantified against the standard of known concentration using LC/MS/MS, calculating the solubility of the test compound as following (DF means the dilution factor):
[Sample solubility in FsSSIF (04)]=Area Ratio sample×DF sample×[STD]/Area Ratio STD

Data set [2] is described as follows: Liver microsomal stability (HLM). The format is in vitro ADME. As to conditions: human, liver microsomes, human liver microsomes 0.5 mg/mL, 1 μM compound, NADPH. (In general: Liver microsomes are vesicles of endoplasmic reticulum, rich in cytochrome P450 enzymes.)
For data set [3], the system named is MDA-MB-436 subcutaneous human breast cancer model. Briefly: In vivo efficacy in MDA-MB-436 subcutaneous xenograft. As to conditions: NOD SCID mice, 28 days. Here is the method: Anti-tumor efficacy of USP1 inhibitors were evaluated in mice using the MDA-MB-436 subcutaneous human breast cancer model that harbors the loss-of-function BRCA1 mutation. 6-8 weeks old female NOD SCID mice from Beijing Anikeeper Biotech Co., Ltd. were inoculated subcutaneously with 1×10^7 MDA-MB-436 tumor cells. When tumors reached a size of approximately 130 mm 3 mice were randomized into group of 5 or 9 and dosed via oral gavage once or twice daily for 28 days with either vehicle (twice daily, 9 animals), one dose of USP1 inhibitor 1-107 at 150 mg/kg (twice daily, 5 animals), three doses of USP1 inhibitor I-111 at […] (once daily, 9 animals per group), or one dose of USP1 inhibitor 1-124 at 150 mg/kg (twice daily, 5 animals). Body weight and tumor volume were measured twice per week. Tumor volume (TV) was calculated as mean and standard deviation of the mean for each treatment group. The percentage tumor growth inhibition (TGI) was calculated using the formula: TGI=(RTVvehicle−RTVtreatment)*100)/(RTVvehicle −1), where RTV is the mean relative volumes (RTV=TVDay terminal[…]) of the tumors in the treatment and the vehicle groups, respectively, on a given day from Day 0-Day 28 where Day 0 is the first day of treatment.
All treatment groups were well-tolerated, with various dose levels and dosing frequency for the duration of the treatment period from day 0 to day 28 in the tumor bearing mice, as shown in FIG. 2.

By solubility is commonly meant how much of the substance goes into solution per volume. As a reminder, the microsomal CLint is the capacity of the preparation to metabolise the compound, expressed as a volume cleared per time. `COc1ncnc(C2CC2)c1-c1ncc2cc(C3CCN(C)CC3)c(=O)n(Cc3ccc(-c4nc(C(F)(F)F)cn4C4CC4)cc3)c2n1` [Compound I-111] yielded a solubility at 2 h in data set [1] of at least 100 µM. The microsomal CLint at 1 μM in data set [2] was under 10 µL/min/mg. Moreover, the figures for the “TGI (tumor growth inhibition)” value in data set [3] (10 mg/kg QD oral gavage), in data set [3] (30 mg/kg QD oral gavage) and in data set [3] (60 mg/kg QD oral gavage) were about 55%, about 80% and over 100%, respectively.
